Data set [1] can be described thus: Pharmacokinetic study: plasma cannabinoids after single oral gavage of full-spectrum cannabis extract or individual cannabinoid. The following applies: for AUC / Cmax / tmax / Total plasma exposure in full-spectrum extract relative to individual compound, fold lower / Detection in plasma following oral administration of the full-spectrum extract / t1/2: mouse plasma; for Total plasma exposure in full-spectrum extract relative to individual compound, fold lower: equivalent doses; for Detection in plasma following oral administration of the full-spectrum extract: single oral dose of extract. The method, then: Drugs were administered by oral gavage in a volume of 5 mL/kg. Wildtype male and female mice (postnatal day 21–28, P21-28) received a single oral gavage of either the full-spectrum cannabis extract or an individual cannabinoid. Cannabinoid doses within the full-spectrum extract or as an individual cannabinoid were as follows in mg/kg: CBDA and Δ^9-THCA, 50; CBD, 25; Δ^9-THC, 15; CBC, 9; CBDVA and CBGA, 7; CBN, 2.5; CBG, 1.5; CBDV and Δ^9-THCV, < 1 (Fig. 1a). At selected time points (15–240 min), mice were anesthetized with isoflurane and whole blood was collected by cardiac puncture. Plasma was isolated by centrifugation (9000 g for 10 min, 4 °C) and stored at − 80 °C until assayed.
Concentrations of cannabinoids in plasma samples were quantified as described previously, [24], [58]. […] The organic layer was isolated by centrifugation (4000 g for 10 min) and evaporated to dryness with N2. Samples were reconstituted in acetonitrile and 0.1% formic acid in water (1:3.3, v/v) for supported-liquid extraction (SLE) with methyl tert-butyl ether (MTBE) using Biotage Isolute SLE+ columns (Uppsala, SWE). […] Quantification of cannabinoids was achieved by comparing samples to standards prepared with known amounts of drug.
Plasma concentrations at each time point were averaged and pharmacokinetic parameters were calculated by noncompartmental analysis. Elimination rate constants were determined by linear regression of the terminal component of the concentration–time curve using GraphPad Prism 8.2 (La Jolla, USA). The log-linear trapezoidal method was used to calculated total drug exposure (area under concentration–time curve) using equations described previously.

Data set [2] deals with T1, BCRP (Homo sapiens, UniProt Q9UNQ0).
T1 sequence (Q9UNQ0 1-655): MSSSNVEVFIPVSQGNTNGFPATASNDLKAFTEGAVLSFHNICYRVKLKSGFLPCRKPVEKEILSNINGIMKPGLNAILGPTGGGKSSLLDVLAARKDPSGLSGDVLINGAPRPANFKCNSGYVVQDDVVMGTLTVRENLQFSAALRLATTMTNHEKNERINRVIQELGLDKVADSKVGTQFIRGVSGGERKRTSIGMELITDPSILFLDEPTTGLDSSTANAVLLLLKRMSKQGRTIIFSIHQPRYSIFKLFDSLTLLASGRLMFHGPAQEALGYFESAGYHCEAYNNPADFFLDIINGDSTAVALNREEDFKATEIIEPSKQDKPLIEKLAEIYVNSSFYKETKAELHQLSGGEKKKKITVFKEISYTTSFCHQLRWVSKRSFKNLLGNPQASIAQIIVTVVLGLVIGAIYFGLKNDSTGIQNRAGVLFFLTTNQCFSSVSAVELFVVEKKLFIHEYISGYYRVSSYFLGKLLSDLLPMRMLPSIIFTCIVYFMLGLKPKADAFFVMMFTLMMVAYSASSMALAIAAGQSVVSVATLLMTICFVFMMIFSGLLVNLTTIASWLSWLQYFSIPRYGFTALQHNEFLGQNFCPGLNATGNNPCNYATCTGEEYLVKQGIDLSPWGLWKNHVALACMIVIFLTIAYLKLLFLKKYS
Nature of the data set: Bidirectional transwell substrate assay, MDCK cells expressing BCRP (with or without elacridar). The following applies: for P (B > A) / P (A > B) / efflux ratio at 240 min, 10 µM: BCRP MDCK cells, 10 µM cannabinoid; for P (B > A): basolateral to apical; for BCRP substrate status: human BCRP MDCK cells vs wildtype, with elacridar control; for P (A > B): apical to basolateral; for efflux ratio at 240 min, 10 µM: human, r (transport efflux ratio), substrate threshold 1.5. As to the method: (§1) We first aimed to determine whether the cannabinoids found in the full-spectrum cannabis extract were substrates of P-glycoprotein and BCRP by using MDCK cells expressing human P-glycoprotein or BCRP in vitro. Transwell assays were conducted to assess bidirectional transport of the cannabinoids detected in plasma following administration of the full-spectrum cannabis extract (CBD, CBDA, CBDVA, CBGA, Δ^9-THC and Δ^9-THCA), including the respective neutral compounds (CBDV and CBG) across wildtype, BCRP and P-glycoprotein MDCK cell monolayers. […] BCRP and P-glycoprotein preferentially transport substrates in the B > A direction.
(§2) Media in the donor chamber was then replaced with that containing 10 µM of an individual cannabinoid in the presence of either vehicle or inhibitor and returned to 37 °C. Aliquots (25 or 50 µL) were removed from the accepter chamber at 60, 120, 180 and 240 min.
(§3) Cannabinoids were analyzed as described above.

Data set [3] can be described thus: Bidirectional transwell transport assay, wildtype MDCK cell monolayers. Particulars: dog, MDCK. As to the method: as §1, §2, §3
For a further data set, the target named is P-glycoprotein (Homo sapiens, UniProt P08183). Nature of the data set: Bidirectional transwell substrate assay, MDCK cells expressing P-glycoprotein. The following applies: for P (A > B): apical to basolateral; for P (B > A): basolateral to apical; for P-glycoprotein substrate status: human P-glycoprotein MDCK cells vs wildtype; for efflux ratio at 240 min, 10 µM: human, MDCK-MDR1, r (transport efflux ratio). The method, then: as §1, §2, §3

The next data set concerns wildtype MDCK cells. As to the kind of experiment: Bidirectional transwell transport assay, wildtype MDCK cell monolayers. Particulars: wildtype MDCK cells, 10 µM cannabinoid, apical to basolateral. As to the method:
as §1, §2, §3

In data set [4] the target is T1, BCRP. Nature of the data set: Inhibition of BCRP-mediated transport of prazosin (transwell, BCRP MDCK cells). The following applies: 10 µM, compared to vehicle.
Where [5] appears, read: P-glycoprotein MDCK cells, 10 µM cannabinoid.
Where [6] appears, read: P-glycoprotein MDCK cells, 10 µM cannabinoid, substrate threshold 2.5.
The mark [7] stands for this setting: oral, administered as individual cannabinoid, doses mg/kg: CBD 25, CBDA 50, CBDVA 7, THC 15, THCA 50.
Setting [8] is: oral, administered in full-spectrum extract, doses mg/kg: CBD 25, CBDA 50, CBDVA 7, CBGA 7, THC 15, THCA 50.

The values below come from article PMC8298633, “Cannabis constituents interact at the drug efflux pump BCRP to markedly increase plasma cannabidiolic acid concentrations” (Scientific Reports, 2021).

The structures appear in SMILES notation. “Also recorded” adds a separate entry of the source. A value given as a limit tells only on which side of the number the result lay.

P-glycoprotein, sequence (P08183 whole entry): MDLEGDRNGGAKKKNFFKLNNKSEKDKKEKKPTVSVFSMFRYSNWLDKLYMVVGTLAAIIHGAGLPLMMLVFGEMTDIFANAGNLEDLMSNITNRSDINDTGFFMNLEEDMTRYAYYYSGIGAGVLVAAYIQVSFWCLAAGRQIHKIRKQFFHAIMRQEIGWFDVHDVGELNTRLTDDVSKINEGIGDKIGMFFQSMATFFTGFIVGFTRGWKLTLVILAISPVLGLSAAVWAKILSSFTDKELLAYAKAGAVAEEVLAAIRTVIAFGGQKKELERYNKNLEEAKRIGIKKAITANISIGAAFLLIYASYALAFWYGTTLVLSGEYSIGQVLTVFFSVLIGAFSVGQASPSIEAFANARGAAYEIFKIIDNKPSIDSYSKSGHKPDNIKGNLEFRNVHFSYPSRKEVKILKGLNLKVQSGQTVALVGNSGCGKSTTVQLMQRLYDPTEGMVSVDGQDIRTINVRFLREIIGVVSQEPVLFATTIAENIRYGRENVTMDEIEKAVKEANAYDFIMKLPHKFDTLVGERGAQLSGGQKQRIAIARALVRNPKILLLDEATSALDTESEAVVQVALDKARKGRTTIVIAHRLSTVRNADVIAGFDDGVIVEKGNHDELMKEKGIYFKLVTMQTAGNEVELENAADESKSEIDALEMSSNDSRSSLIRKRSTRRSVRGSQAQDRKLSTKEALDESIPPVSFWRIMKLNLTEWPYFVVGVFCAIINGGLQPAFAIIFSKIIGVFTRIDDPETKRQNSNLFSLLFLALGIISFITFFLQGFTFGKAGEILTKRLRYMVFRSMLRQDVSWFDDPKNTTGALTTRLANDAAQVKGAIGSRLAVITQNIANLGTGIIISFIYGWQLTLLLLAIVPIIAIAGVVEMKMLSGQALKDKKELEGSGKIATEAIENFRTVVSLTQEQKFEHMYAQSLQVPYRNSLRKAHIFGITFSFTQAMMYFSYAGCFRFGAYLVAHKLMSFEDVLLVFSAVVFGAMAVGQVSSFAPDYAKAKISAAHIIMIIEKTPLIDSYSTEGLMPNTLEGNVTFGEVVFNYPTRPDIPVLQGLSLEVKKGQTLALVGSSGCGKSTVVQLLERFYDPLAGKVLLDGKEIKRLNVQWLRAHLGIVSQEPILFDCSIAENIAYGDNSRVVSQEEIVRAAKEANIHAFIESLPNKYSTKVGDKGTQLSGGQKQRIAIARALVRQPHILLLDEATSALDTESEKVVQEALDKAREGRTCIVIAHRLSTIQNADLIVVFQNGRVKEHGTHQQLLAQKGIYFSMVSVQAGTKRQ

For the molecule `CCCCCc1cc(O)c(C/C=C(\C)CCC=C(C)C)c(O)c1C(=O)O` [CBGA, cannabigerolic acid], the AUC was 144000 ng·h/mL in data set [1] (both, mouse, plasma, po, 7 mg/kg, AUC (does not include terminal phase), administered as individual cannabinoid, CBGA 7 mg/kg) and 86200 ng·h/mL in data set [1] (both, mouse, plasma, po, AUC, oral, administered in full-spectrum extract, doses mg/kg: CBD 25, CBDA 50, CBDVA 7, CBGA 7, THC 15, THCA 50). Moreover, the Cmax came to 48000 ± 2000 ng/mL in data set [1] (both, mouse, plasma, po, Cmax, oral, administered as individual cannabinoid, doses mg/kg: CBDA 50, CBDVA 7, CBGA 7) and 12000 ± 1000 ng/mL in data set [1] (both, mouse, plasma, po, Cmax, oral, administered in full-spectrum extract, doses mg/kg: CBDA 50, CBDVA 7, CBGA 7). The half-life in data set [1] (both, mouse, plasma, po, t1/2, mouse plasma, oral, administered in full-spectrum extract, doses mg/kg: CBD 25, CBDA 50, CBDVA 7, CBGA 7, THC 15, THCA 50) stood at 4.97 h. The tmax in data set [1] (both, mouse, plasma, po, tmax, oral, administered as individual cannabinoid, doses mg/kg: CBD 25, CBDA 50, CBDVA 7, CBGA 7, THC 15, THCA 50) is 2 h; in data set [1] (both, mouse, plasma, po, tmax, oral, administered in full-spectrum extract, doses mg/kg: CBD 25, CBDA 50, CBDVA 7, CBGA 7, THC 15, THCA 50) it was not above 1 h. Moreover, in data set [1] (oral), the “Total plasma exposure in full-spectrum extract relative to individual compound, fold lower” value is given as 2–4 ×. In addition, in data set [1], the “Detection in plasma following oral administration of the full-spectrum extract” value (shortened to “Detection”) is “detected”. For the same molecule, the “P (B > A)” value on BCRP [2] is reported as 5 ± 1 × 10^−5 cm/s; at P-glycoprotein (setting [5]), 3 ± 1 × 10^−5 cm/s. Also, on BCRP [2], the BCRP substrate status result is recorded as “not substrates of either BCRP or P-glycoprotein”. The Papp B→A at 240 min, 10 µM in data set [3] stood at 10 ± 10 ×10⁻⁶ cm/s. The “P (A > B)” value on P-glycoprotein (setting [5]) was 5 ± 2 × 10^−5 cm/s. Moreover, the P-glycoprotein substrate status result at P-glycoprotein is given as “not substrates of either BCRP or P-glycoprotein”. Also, the efflux ratio at 240 min, 10 µM at P-glycoprotein (setting [6]) amounted to 0.7 ± 0.5.

Turning to `CCCCCc1cc(O)c(C/C=C(\C)CCC=C(C)C)c(O)c1` [CBG, cannabigerol], in data set [1], the “Detection” value is “not detected”. Moreover, at BCRP [2], the “P (A > B)” value is listed as 47 ± 9 × 10^−5 cm/s; the “P (B > A)” value was 53 ± 10 × 10^−5 cm/s; the BCRP substrate status result is recorded as “weak substrates of BCRP”; the efflux ratio at 240 min, 10 µM was 1.1 ± 0.3. In addition, in data set [3], the Papp B→A at 240 min, 10 µM came out at 100 ± 30 ×10⁻⁶ cm/s and the efflux ratio at 240 min, 10 µM was found to be 0.8 ± 0.5. Further, in the data set on wildtype MDCK cells, the “P (A > B)” value was 12 ± 5 × 10^−5 cm/s. In addition, on BCRP [4], the “Effect on BCRP-mediated transport of prazosin” value was “not prazosin transport”. Moreover, on P-glycoprotein (setting [5]), the “P (A > B)” value was 19 ± 5 × 10^−5 cm/s and the “P (B > A)” value is reported as 14 ± 2 × 10^−5 cm/s. The P-glycoprotein substrate status result on P-glycoprotein was “not P-glycoprotein substrates”.

On to `C=C(C)[C@@H]1CCC(C)=C[C@H]1c1c(O)cc(CCC)cc1O` [CBDV, cannabidivarin], for which, in data set [1], the “Detection” value was “not detected”. Also, on BCRP [2], the “P (A > B)” value was 63 ± 14 × 10^−5 cm/s; the “P (B > A)” value is 90 ± 9 × 10^−5 cm/s; the BCRP substrate status result is on record as “not considered a substrate of BCRP; also recorded: not substrates of either BCRP or P-glycoprotein”; the efflux ratio at 240 min, 10 µM was 1.4 ± 0.2. In data set [3], the basolateral-to-apical permeability (Papp B→A) at 240 min, 10 µM amounted to 440 ± 50 ×10⁻⁶ cm/s and the efflux ratio at 240 min, 10 µM came to 1 ± 0.2. In the data set on wildtype MDCK cells, the “P (A > B)” value is reported as 43 ± 5 × 10^−5 cm/s. At P-glycoprotein (setting [5]), the “P (A > B)” value is 30 ± 8 × 10^−5 cm/s and the “P (B > A)” value is given as 34 ± 3 × 10^−5 cm/s. In addition, the P-glycoprotein substrate status result at P-glycoprotein was “not substrates of either BCRP or P-glycoprotein”. Besides, at P-glycoprotein (setting [6]), the efflux ratio at 240 min, 10 µM was determined as 1.1 ± 0.3.

`CCCCCc1cc(O)c2c(c1)OC(C)(C)c1ccc(C)cc1-2` [CBN, cannabinol]: the “Detection” value in data set [1] is reported as “not detected”.

Take `CCCCCc1cc(O)c2c(c1)OC(C)(CCC=C(C)C)C=C2` (centres unmarked) [CBC]: the “Detection” value in data set [1] is recorded as “not detected”.

For the molecule `CCCc1cc(O)c2c(c1)OC(C)(C)[C@@H]1CCC(C)=C[C@@H]21` [Δ^9-THCV, Δ^9-tetrahydrocannabivarin], in data set [1], the “Detection” value is given as “not detected”.

`CCCCCc1cc2c(c(O)c1C(=O)O)C1C=C(C)CCC1C(C)(C)O2` (centres unmarked) [Δ^9-THCA, Δ^9-tetrahydrocannabinolic acid]: the tmax in data set [1] (oral, administered as individual cannabinoid, doses mg/kg: CBD 25, CBDA 50, CBDVA 7, CBGA 7, THC 15, THCA 50) turned out to be 0.5 h; in data set [1] (setting [8]) it was 0.75 h. The AUC in data set [1] (setting [7]) amounted to 2880 ng·h/mL; in data set [1] (setting [8]) it was 733 ng·h/mL. In addition, the t1/2 in data set [1] (setting [7]) stood at 0.617 h; in data set [1] (setting [8]) it was 0.767 h. For the same molecule, the Cmax is recorded as 2094 ± 74 ng/mL in data set [1] (oral, administered as individual cannabinoid, doses mg/kg: CBD 25, THC 15, THCA 50) and 465 ± 64 ng/mL in data set [1] (oral, administered in full-spectrum extract, doses mg/kg: CBD 25, THC 15, THCA 50). The “Total plasma exposure in full-spectrum extract relative to individual compound, fold lower” value in data set [1] (oral) is 2–4 ×. In data set [1], the “Detection” value was “detected”. Moreover, the “P (B > A)” value is on record as 6 ± 2 × 10^−5 cm/s at BCRP [2] and 8 ± 3 × 10^−5 cm/s at P-glycoprotein (setting [5]). Moreover, the BCRP substrate status result at BCRP [2] is listed as “not substrates of either BCRP or P-glycoprotein”. Also, the “P (A > B)” value on P-glycoprotein (setting [5]) was 17 ± 5 × 10^−5 cm/s. Further, on P-glycoprotein (setting [6]), the “r (transport efflux ratio)” value was 0.5 ± 0.4. On P-glycoprotein, the P-glycoprotein substrate status entry is “not substrates of either BCRP or P-glycoprotein”.

The AUC is concentration integrated over time. Low values mean less exposure, high ones more exposure. In general, Cmax refers to the peak of the concentration-time curve. For orientation: half-life means the time in which the quantity being followed falls by half. A lower half-life goes with fast loss. By Papp B→A is commonly meant the apparent permeability from the basolateral to the apical side of a cell layer. The term efflux ratio denotes the permeability from basolateral to apical divided by that in the opposite direction, in the common usage.
